{
  "source": "patent US12378256B2",
  "about": "“Heterocyclic compound” (Takeda Pharmaceutical Company Limited, priority 2017, dated 2025)",
  "key": {"[1]": {"assay": "Rat PK test (cassette dosing)", "assay_type": "in vivo", "details": "male SD rats, plasma; for Tmax: oral 1 mg/kg and iv 0.1 mg/kg given, route not stated for Tmax, read-out: Tmax (time to reach maximum plasma concentration); for clearance / MRT: intravenous 0.1 mg/kg; for clearance: read-out: CL total (total clearance) (converted); for MRT: read-out: MRT iv (mean residence time)", "description": "As the rat, 8-week-old male SD rats (Japan SLC, Inc.) were used. They were fed on a solid commercially available diet (CE-2, CLEA Japan, Inc.) and allowed to freely ingest tap water as the drinking water. An intravenous administration solution for the rats was prepared by weighing a test compound, dissolving same in dimethylacetamide (DMA) (Wako Pure Chemical Industries, Ltd.), adding the same volume of 1,3-butanediol (Wako Pure Chemical Industries, Ltd.) and mixing by stirring to give a DMA:1,3-butanediol (1:1, v/v) solution. An oral administration solution was prepared by weighing a test compound, pulverizing same in an agate mortar, and gradually adding 0.5 w/v % aqueous methylcellulose solution to give a suspension. For intravenous administration, the solution was administered into femoral vein of the rats at 0.1 mg/0.5 mL/kg (salt converted to free form). For oral administration, the suspension was administered to the rats at 1 mg/5 mL/kg (salt converted to free form). The cassette dosing method was used for the both administration routes, and the test compound was administered in the following manner. • Compound of Example 20 (intravenous: 8 compounds cassette administration, oral: 5 compounds cassette administration) • Compound of Example 22 (intravenous: 5 compounds cassette administration, oral: 5 compounds cassette administration) • Compound of Example 31 (intravenous: 10 compounds cassette administration, oral: 5 compounds cassette administration) • Compound of Example 36 (intravenous: 10 compounds cassette administration, oral: 5 compounds cassette administration) • Compound of Example 44 (intravenous: 10 compounds cassette administration, oral: 5 compounds cassette administration) • Compound of Example 55 (intravenous: 6 compounds cassette administration, oral: 4 compounds cassette administration) • Compound of Example 74 (intravenous: 10 compounds cassette administration, oral: 5 compounds cassette administration) • Compound of Example 76 (intravenous: 9 compounds cassette administration, oral: 4 compounds cassette administration) • Compound of Example 77 (intravenous: 10 compounds cassette administration, oral: 5 compounds cassette administration) • Compound of Example 102 (intravenous: 10 compounds cassette administration, oral: 5 compounds cassette administration) • Compound of Example 109 (intravenous: 7 compounds cassette administration, oral: 4 compounds cassette administration)\nIn the case of intravenous administration, blood samples were collected from the tail vein at 5, 10, 15, 30 min, 1, 2, 4, 8 hr after administration, an anticoagulation treatment with heparin sodium (Shimizu Pharmaceutical Co., Ltd.) was performed, and plasma was collected after centrifugation and subjected to the measurement of drug concentration. In the case of oral administration, blood samples were collected from the tail vein at 15, 30 min, 1, 2, 4, 8 hr after administration, an anticoagulation treatment with heparin sodium was performed, and plasma was collected after centrifugation and subjected to the measurement of drug concentration.\nAll drug concentrations were measured by LC-MS/MS analysis. For a pharmacokinetics test, the plasma (50 μL) was placed in a tube, acetonitrile (150 μL) containing internal standard solution was added and they were mixed on a vortex mixer. Thereafter, the mixture was centrifuged (5000 rpm, 5 min, 4° C.). The supernatant (60 μL) after centrifugation was added to 10 mmol/L ammonium formate (160 μL) added earlier and mixed therewith. This sample was injected to LC/MS/MS. […]"}, "Male SD rats": {"tested_on": "Male SD rats", "assay": "Rat defecation experiment", "assay_type": "in vivo", "details": "mean ± standard error", "description": "Rat Defecation Experiment\nMale SD rats (5-6 weeks old) were used after an acclimation period for about 1 week. A test drug (1 mg/kg or 3 mg/kg) was suspended in 0.5% methylcellulose solution and orally administered at a volume of 5 mL/kg, and the number of feces 2 hr later was counted. Only 0.5% methylcellulose was administered to a solvent administration group."}},
  "data": [
    {"smiles": "Cn1cc(-c2ccc(C(F)c3cc(C(=O)N[C@H]4CCOC[C@@H]4O)nc4ccoc34)cc2)nn1", "note": "(single isomer, unassigned) [Example 55, 1,5-anhydro-2,3-dideoxy-3-(((7-(fluoro(4-(1-methyl-1H-1,2,3-triazol-4-yl)phenyl)methyl)furo[3,2-b]pyridin-5-yl)carbonyl)amino)-L-threo-pentitol]", "values": [
      {"measurement": "Tmax", "setting": "[1]", "value": 1.7, "unit": "h"},
      {"measurement": "clearance", "setting": "[1]", "value": 30.2, "unit": "mL/min/kg"},
      {"measurement": "MRT", "setting": "[1]", "value": 0.6, "unit": "h"}
    ]},
    {"smiles": "Cn1cc(-c2ccc(Cc3cc(C(=O)N[C@H]4CCOC[C@@H]4O)nc4ccoc34)cc2)nn1", "note": "[Example 20, 1,5-anhydro-2,3-dideoxy-3-(((7-(4-(1-methyl-1H-1,2,3-triazol-4-yl)benzyl)furo[3,2-b]pyridin-5-yl)carbonyl)amino)-L-threo-pentitol]", "values": [
      {"measurement": "number of feces 2 hr later", "setting": "Male SD rats; 1 mg/kg oral", "value": "10.6 ± 1.3"},
      {"measurement": "number of feces 2 hr later", "setting": "Male SD rats; 3 mg/kg oral", "value": "12.1 ± 1.1"},
      {"measurement": "Tmax", "setting": "[1]", "value": 2, "unit": "h"},
      {"measurement": "clearance", "setting": "[1]", "value": 4.1, "unit": "mL/min/kg"},
      {"measurement": "MRT", "setting": "[1]", "value": 1.8, "unit": "h"}
    ]},
    {"smiles": "O=C(N[C@H]1CCOC[C@@H]1O)c1cc(Cc2ccc(-n3cccn3)cc2)c2c(n1)CCO2", "note": "[Example 22, 1,5-anhydro-2,3-dideoxy-3-(((7-(4-(1H-pyrazol-1-yl)benzyl)-2,3-dihydrofuro[3,2-b]pyridin-5-yl)carbonyl)amino)-L-threo-pentitol]", "values": [
      {"measurement": "Tmax", "setting": "[1]", "value": 2, "unit": "h"},
      {"measurement": "clearance", "setting": "[1]", "value": 4.67, "unit": "mL/min/kg"},
      {"measurement": "MRT", "setting": "[1]", "value": 1.9, "unit": "h"}
    ]},
    {"smiles": "Cn1cc(-c2ccc(Cc3cc(C(=O)N[C@H]4CCOC[C@@H]4O)nc4c3OCC4)cc2)nn1", "note": "[Example 31, 1,5-anhydro-2,3-dideoxy-3-(((7-(4-(1-methyl-1H-1,2,3-triazol-4-yl)benzyl)-2,3-dihydrofuro[3,2-b]pyridin-5-yl)carbonyl)amino)-L-threo-pentitol]", "values": [
      {"measurement": "number of feces 2 hr later", "setting": "Male SD rats; 1 mg/kg oral", "value": "10.0 ± 1.4"},
      {"measurement": "Tmax", "setting": "[1]", "value": 1, "unit": "h"},
      {"measurement": "clearance", "setting": "[1]", "value": 3.33, "unit": "mL/min/kg"},
      {"measurement": "MRT", "setting": "[1]", "value": 1.5, "unit": "h"}
    ]},
    {"smiles": "Cn1cc(-c2ccc(Cc3cc(C(=O)N[C@H]4CCOC[C@@H]4O)nc4ccoc34)cn2)cn1", "note": "[Example 36, 1,5-anhydro-2,3-dideoxy-3-(((7-((6-(1-methyl-1H-pyrazol-4-yl)pyridin-3-yl)methyl)furo[3,2-b]pyridin-5-yl)carbonyl)amino)-L-threo-pentitol]", "values": [
      {"measurement": "Tmax", "setting": "[1]", "value": 1.3, "unit": "h"},
      {"measurement": "clearance", "setting": "[1]", "value": 5.45, "unit": "mL/min/kg"},
      {"measurement": "MRT", "setting": "[1]", "value": 1.9, "unit": "h"}
    ]},
    {"smiles": "Cn1cc(-c2ccc(Cc3cc(C(=O)N[C@H]4CCOC[C@@H]4O)nc4c3OCC4)cc2)cn1", "note": "[Example 44, 1,5-anhydro-2,3-dideoxy-3-(((7-(4-(1-methyl-1H-pyrazol-4-yl)benzyl)-2,3-dihydrofuro[3,2-b]pyridin-5-yl)carbonyl)amino)-L-threo-pentitol]", "values": [
      {"measurement": "Tmax", "setting": "[1]", "value": 1.3, "unit": "h"},
      {"measurement": "clearance", "setting": "[1]", "value": 4.77, "unit": "mL/min/kg"},
      {"measurement": "MRT", "setting": "[1]", "value": 1.3, "unit": "h"}
    ]},
    {"smiles": "Cn1cnc(-c2ccc(Cc3cc(C(=O)N[C@H]4CCOC[C@@H]4O)nc4c3OCC4)cc2)c1", "note": "[Example 74, 1,5-anhydro-2,3-dideoxy-3-(((7-(4-(1-methyl-1H-imidazol-4-yl)benzyl)-2,3-dihydrofuro[3,2-b]pyridin-5-yl)carbonyl)amino)-L-threo-pentitol]", "values": [
      {"measurement": "Tmax", "setting": "[1]", "value": 0.8, "unit": "h"},
      {"measurement": "clearance", "setting": "[1]", "value": 14, "unit": "mL/min/kg"},
      {"measurement": "MRT", "setting": "[1]", "value": 0.9, "unit": "h"}
    ]},
    {"smiles": "COCCNC(=O)c1ccc(Cc2cc(C(=O)N[C@H]3CCOC[C@@H]3O)nc3c2OCC3)cc1F", "note": "[Example 76, 1,5-anhydro-2,3-dideoxy-3-(((7-(3-fluoro-4-((2-methoxyethyl)carbamoyl)benzyl)-2,3-dihydrofuro[3,2-b]pyridin-5-yl)carbonyl)amino)-L-threo-pentitol]", "values": [
      {"measurement": "number of feces 2 hr later", "setting": "Male SD rats; 1 mg/kg oral", "value": "8.3 ± 0.8"},
      {"measurement": "number of feces 2 hr later", "setting": "Male SD rats; 3 mg/kg oral", "value": "10.3 ± 0.9"},
      {"measurement": "Tmax", "setting": "[1]", "value": 0.8, "unit": "h"},
      {"measurement": "clearance", "setting": "[1]", "value": 5.58, "unit": "mL/min/kg"},
      {"measurement": "MRT", "setting": "[1]", "value": 1.2, "unit": "h"}
    ]},
    {"smiles": "O=C(N[C@H]1CCOC[C@@H]1O)c1cc(Cc2ccc(C(=O)NC[C@@H]3CCCO3)c(F)c2)c2c(n1)CCO2", "note": "[Example 77, 1,5-anhydro-2,3-dideoxy-3-(((7-(3-fluoro-4-(((2S)-tetrahydrofuran-2-ylmethyl)carbamoyl)benzyl)-2,3-dihydrofuro[3,2-b]pyridin-5-yl)carbonyl)amino)-L-threo-pentitol]", "values": [
      {"measurement": "number of feces 2 hr later", "setting": "Male SD rats; 1 mg/kg oral", "value": "13.9 ± 1.5"},
      {"measurement": "number of feces 2 hr later", "setting": "Male SD rats; 3 mg/kg oral", "value": "12.3 ± 1.6"},
      {"measurement": "Tmax", "setting": "[1]", "value": 1, "unit": "h"},
      {"measurement": "clearance", "setting": "[1]", "value": 8.13, "unit": "mL/min/kg"},
      {"measurement": "MRT", "setting": "[1]", "value": 0.8, "unit": "h"}
    ]},
    {"smiles": "O=C(N[C@H]1CCOC[C@@H]1O)c1cc(Cc2ccc(C(=O)NC[C@@H]3CCCO3)c(F)c2)c2occc2n1", "note": "[Example 102, 1,5-anhydro-2,3-dideoxy-3-(((7-(3-fluoro-4-(((2S)-tetrahydrofuran-2-ylmethyl)carbamoyl)benzyl)furo[3,2-b]pyridin-5-yl)carbonyl)amino)-L-threo-pentitol]", "values": [
      {"measurement": "number of feces 2 hr later", "setting": "Male SD rats; 1 mg/kg oral", "value": "8.9 ± 1.3"},
      {"measurement": "number of feces 2 hr later", "setting": "Male SD rats; 3 mg/kg oral", "value": "12.4 ± 0.9"},
      {"measurement": "Tmax", "setting": "[1]", "value": 1, "unit": "h"},
      {"measurement": "clearance", "setting": "[1]", "value": 11.7, "unit": "mL/min/kg"},
      {"measurement": "MRT", "setting": "[1]", "value": 0.9, "unit": "h"}
    ]},
    {"smiles": "COCCNC(=O)c1ccc(Cc2cc(C(=O)N[C@H]3CCOC[C@@H]3O)nc3ccoc23)cc1F", "note": "[Example 109, 1,5-anhydro-2,3-dideoxy-3-(((7-(3-fluoro-4-((2-methoxyethyl)carbamoyl)benzyl)furo[3,2-b]pyridin-5-yl)carbonyl)amino)-L-threo-pentitol]", "values": [
      {"measurement": "Tmax", "setting": "[1]", "value": 1, "unit": "h"},
      {"measurement": "clearance", "setting": "[1]", "value": 6.73, "unit": "mL/min/kg"},
      {"measurement": "MRT", "setting": "[1]", "value": 1.5, "unit": "h"}
    ]}
  ]
}
